Laboratory results published in patent publication US12024707B2, “Methods and compositions for modulating lncRNAs and methods of treatment based on lncRNA expression” (Washington University, priority 2020, dated 2024).
Where a name gives a salt, the structure may show the parent alone.

What was measured:
[1] = tested on: HT29 RAMS11 overexpressing cells; assay: High-throughput viability assay (resazurin), 119 FDA-approved anticancer drugs, RAMS11 overexpressing cells (Clone1, Clone2); conditions: for Viability Fold Change: 72 h, vs empty vector control; for increase in drug resistance in HT29 RAMS11 overexpressing cells: topoisomerase inhibitors, vs empty vector cells; for increase in cellular viability compared with empty vector control cell line: HT29 RAMS11 overexpressing vs empty vector cells, treated 72 h; for effect of cell viability: HT29 RAMS11 overexpressing cells
[2] = tested on: LoVo RAMS11 CRISPR KO cells; assay: Individual drug IC50 / cell viability assays in RAMS11 CRISPR KO cells; assay type: cell-based; conditions: for increase in drug sensitivity: LoVo RAMS11 CRISPR KO vs wild-type treated cells, 0.5 μM doxorubicin or 0.7 μM epirubicin; for effect of cell viability: LoVo RAMS11 CRISPR KO cells
Procedure: The NIH approved oncology library of 119 drugs (AOD6 plate 4825-1 and AOD6 plate 4826) was received from the NIH National Cancer Institute DTP Developmental Therapeutics Program. Drugs were diluted in DMSO to 1 mM and the well assignments were rearranged so drugs were confined to the inner 60 wells of 96-well plates. HT29 RAMS11 overexpressing Clone1 and Clone2 cell lines were seeded at 5000 cells per well in a 96-well plate. The next day serial diluted drug was added to pre-seeded plates in media containing 1% DMSO vehicle, using a Robbins Hydra 96 micro dispenser. Two 96-well plates of cells were used as vehicle controls. The plates were incubated for 3 days. Percent viability was scored by incubating cells for 3 h with resazurin sodium (0.023 mg/mL, Sigma R7017). The reaction was stopped by the addition of SDS (1% final concentration). Fluorescence Ex/Em 540/590 was read in a Biotek Synergy H1 plate reader (Winooski, VT). The fluorescence values for the vehicle plates were averaged and percent viability was determined by the formula: Percent viability=[…]/(average vehicle−average resazurin in media blank)×100. We removed drugs that were undetectable, or out of range, by resazurin assay, leaving 118 drugs to assess in the study (TABLE 3). Values with more than a 1.5-fold change in both RAMS11 Clone1 and Clone2 overexpressing cell lines were used to determine significance. Individual drug IC50 assays were done in a similar manner as described above with CRISPR KO cells. Assays were repeated more than three times.

[3] = tested on: SW620 cells with silenced RAMS11; assay: Drug IC50 / cell viability assays in cells with transient silencing of RAMS11
[4] = tested on: TOP2α promoter; assay: Chromatin immunoprecipitation (ChIP) qPCR at TOP2α promoter, LoVo; assay type: cell-based; conditions: LoVo cells
Procedure: ChIP qPCR assays were conducted by first sonicating five million cells in SDS lysis buffer (1% SDS, 500 mM EDTA, 50 mM Tris-HCl pH 8). […] The next day Dynabeads Protein G (Invitrogen) were added to the antibody lysate mixture and rotated for 1 h. Bead/lysate mixture was then washed once with low salt wash buffer (0.1% SDS, 1% Triton X-100, 2 mM EDTA, 20 mM Tris-HCl pH 8, 150 mM NaCl), then high salt buffer (0.1% SDS, 1% Triton X-100, 2 mM EDTA, 20 mM Tris-HCl pH 8, 500 mM NaCl), lithium chloride wash buffer (0.25 M lithium chloride, 1% NP40, 1% sodium deoxycholate, 1 mM EDTA, 10 mM Tris-HCl pH 8), and finally two washes with Tris-HCl EDTA buffer (10 mM Tris-HCl pH 8, 1 mM EDTA). DNA was eluted by incubating beads for 30 min at room temperature with SDS elution buffer (1% SDS, 0.1 M sodium bicarbonate), followed by 1.25 M NaCl and 2.5 mg/mL RNAse A at 95° for 15 min shaking followed by addition of proteinase K buffer (1 μL 10 mg/mL proteinase K, 5 μL […], 10 μL 1 M Tris pH 7.5) shaking at 60° for 15 min. DNA was then isolated using phenol:chloroform:isoamyl alcohol extraction following the general protocol as mentioned above. […] The % input calculations were determined by comparing CT values from input DNA and ChIP DNA for the TOP2A target promoter region using the following equation: % Input=% of starting input fraction×2^[CT(input)−CT(Chlp)] […]

[5] = OE1 (RAMS11 overexpression clone 1), 0.1 uM drug
[6] = OE1 (RAMS11 overexpression clone 1), 1 uM drug
[7] = OE1 (RAMS11 overexpression clone 1), 10 uM drug
[8] = OE2 (RAMS11 overexpression clone 2), 0.1 uM drug
[9] = OE2 (RAMS11 overexpression clone 2), 1 uM drug
[10] = OE2 (RAMS11 overexpression clone 2), 10 uM drug

Molecule: CC[C@]1(O)C[C@@H]2CN(CCc3c([nH]c4ccccc34)[C@@](C(=O)OC)(c3cc4c(cc3OC)N(C)[C@H]3[C@@](O)(C(=O)OC)[C@H](OC(C)=O)[C@]5(CC)C=CCN6CC[C@]43[C@@H]65)C2)C1 [Vinblastine sulfate]
- Viability Fold Change [1, 5]: 3.198
- Viability Fold Change [1, 6]: 3.402
- Viability Fold Change [1, 7]: 3.682
- Viability Fold Change [1, 8]: 2.825
- Viability Fold Change [1, 9]: 3.412
- Viability Fold Change [1, 10]: 3.815

Molecule: CCC1=C[C@@H]2CN(C1)Cc1c([nH]c3ccccc13)[C@@](C(=O)OC)(c1cc3c(cc1OC)N(C)[C@H]1[C@@](O)(C(=O)OC)[C@H](OC(C)=O)[C@]4(CC)C=CCN5CC[C@]31[C@@H]54)C2 [Vinorelbine tartrate]
- Viability Fold Change [1, 5]: 0.9568
- Viability Fold Change [1, 6]: 1.194
- Viability Fold Change [1, 7]: 2.913
- Viability Fold Change [1, 8]: 0.9481
- Viability Fold Change [1, 9]: 1.067
- Viability Fold Change [1, 10]: 2.913

Molecule: CS(=O)(=O)c1ccc(C(=O)Nc2ccc(Cl)c(-c3ccccn3)c2)c(Cl)c1 [Vismodegib]
- Viability Fold Change [1, 5]: 0.8416
- Viability Fold Change [1, 6]: 0.9134
- Viability Fold Change [1, 7]: 0.9421
- Viability Fold Change [1, 8]: 0.9752
- Viability Fold Change [1, 9]: 0.846
- Viability Fold Change [1, 10]: 0.8976

Molecule: O=C(CCCCCCC(=O)Nc1ccccc1)NO [Vorinostat]
- Viability Fold Change [1, 5]: 1.123
- Viability Fold Change [1, 6]: 0.8948
- Viability Fold Change [1, 7]: 1.604
- Viability Fold Change [1, 8]: 1.068
- Viability Fold Change [1, 9]: 1.159
- Viability Fold Change [1, 10]: 1.356

Molecule: O=P(O)(O)C(O)(Cn1ccnc1)P(=O)(O)O [Zoledronic acid]
- Viability Fold Change [1, 5]: 0.9494
- Viability Fold Change [1, 6]: 0.9911
- Viability Fold Change [1, 7]: 1.01
- Viability Fold Change [1, 8]: 0.9595
- Viability Fold Change [1, 9]: 1.055
- Viability Fold Change [1, 10]: 1.082

Molecule: COc1cccc2c1C(=O)c1c(O)c3c(c(O)c1C2=O)C[C@@](O)(C(C)=O)C[C@@H]3O[C@H]1C[C@H](N)[C@H](O)[C@H](C)O1 [daunorubicin HCl, reference compound]
- Viability Fold Change [1, 5]: 1.103
- Viability Fold Change [1, 6]: 2.258
- Viability Fold Change [1, 7]: 3.761
- Viability Fold Change [1, 8]: 1.084
- Viability Fold Change [1, 9]: 2.098
- Viability Fold Change [1, 10]: 3.726
- increase in drug resistance in HT29 RAMS11 overexpressing cells [1]: at least a two-fold increase in drug resistance

Molecule: COc1cccc2c1C(=O)c1c(O)c3c(c(O)c1C2=O)C[C@@](O)(C(=O)CO)C[C@@H]3O[C@H]1C[C@H](N)[C@H](O)[C@H](C)O1 [doxorubicin HCl, reference compound]
- increase in drug sensitivity [2]: 1.5 fold
- Viability Fold Change [1, 5]: 1.113
- Viability Fold Change [1, 6]: 1.973
- Viability Fold Change [1, 7]: 2.438
- Viability Fold Change [1, 8]: 1.165
- Viability Fold Change [1, 9]: 1.939
- Viability Fold Change [1, 10]: 2.403
- increase in drug resistance in HT29 RAMS11 overexpressing cells [1]: at least a two-fold increase in drug resistance

Molecule: COc1cccc2c1C(=O)c1c(O)c3c(c(O)c1C2=O)C[C@@](O)(C(=O)CO)C[C@@H]3O[C@H]1C[C@H](N)[C@@H](O)[C@H](C)O1 [epirubicin HCl, reference compound]
- increase in drug sensitivity [2]: 1.5 fold
- increase in drug resistance in HT29 RAMS11 overexpressing cells [1]: at least a two-fold increase in drug resistance

Molecule: O=c1[nH]c(=O)n([C@H]2C[C@H](O)[C@@H](CO)O2)cc1F [floxuridine, reference compound]
- increase in cellular viability compared with empty vector control cell line [1]: greatest resistance
- Viability Fold Change [1, 5]: 1.541
- Viability Fold Change [1, 6]: 2.291
- Viability Fold Change [1, 7]: 2.964
- Viability Fold Change [1, 8]: 1.569
- Viability Fold Change [1, 9]: 2.375
- Viability Fold Change [1, 10]: 3.091

Molecule: Nc1ccn([C@@H]2O[C@H](CO)[C@@H](O)C2(F)F)c(=O)n1 [gemcitabine, reference compound]
- increase in cellular viability compared with empty vector control cell line [1]: greatest resistance
- Viability Fold Change [1, 6]: 3.429
- Viability Fold Change [1, 7]: 2.39
- Viability Fold Change [1, 8]: 1.507
- Viability Fold Change [1, 9]: 3.028
- Viability Fold Change [1, 10]: 2.499

Molecule: CC(=O)[C@]1(O)Cc2c(O)c3c(c(O)c2[C@@H](O[C@H]2C[C@H](N)[C@H](O)[C@H](C)O2)C1)C(=O)c1ccccc1C3=O [idarubicin HCl, reference compound]
- increase in drug resistance in HT29 RAMS11 overexpressing cells [1]: at least a two-fold increase in drug resistance

Molecule: CCc1c2c(nc3ccc(OC(=O)N4CCC(N5CCCCC5)CC4)cc13)-c1cc3c(c(=O)n1C2)COC(=O)[C@]3(O)CC [irinotecan]
- increase in drug sensitivity ([3]; SW620, RAMS11 siRNA1 relative to scrambled control): > 3.17 fold
- increase in drug sensitivity ([3]; SW620, RAMS11 siRNA2 relative to scrambled control): > 11.8 fold
- effect of cell viability [2]: did not see a significant effect
- effect of cell viability [1]: did not see a significant effect

Molecule: O=C1[O][Pt]2([NH][C@@H]3CCCC[C@H]3[NH]2)[O]C1=O [oxaliplatin, reference compound]
- effect of cellular viability ([3]; SW620 cells with silenced RAMS11): did not have a significant effect
- effect of cell viability [2]: did not see a significant effect
- effect of cell viability [1]: did not see a significant effect
- Viability Fold Change [1, 5]: 0.9127
- Viability Fold Change [1, 6]: 0.9881
- Viability Fold Change [1, 7]: 1.33
- Viability Fold Change [1, 8]: 0.9671
- Viability Fold Change [1, 9]: 1.102
- Viability Fold Change [1, 10]: 1.427

Molecule: CC[C@@]1(O)C(=O)OCc2c1cc1n(c2=O)Cc2cc3c(CN(C)C)c(O)ccc3nc2-1 [topotecan hydrochloride, reference compound]
- increase in drug resistance in HT29 RAMS11 overexpressing cells [1]: at least a two-fold increase in drug resistance

Molecule: Arsenic trioxide
- Viability Fold Change [1, 5]: 0.9683
- Viability Fold Change [1, 6]: 0.9697
- Viability Fold Change [1, 7]: 0.8821
- Viability Fold Change [1, 8]: 1.015
- Viability Fold Change [1, 10]: 1.115

Molecule: Bleomycin
- Viability Fold Change [1, 5]: 0.921
- Viability Fold Change [1, 6]: 1.039
- Viability Fold Change [1, 7]: 1.025
- Viability Fold Change [1, 8]: 0.96

Molecule: CBX4 siRNA: custom silencer select siRNA targeting CBX4, SEQ ID NO: 35 and 36 (chain 1 UAUGGGUUCAUCCAGGUCUGA; chain 2 AGACCUGGAUGAACCCAUATT; chemistry not given here)
- H3K4me3 at the TOP2α promoter [4]: decrease
- decrease in CBX4 occupancy at the TOP2α promoter [4]: 78%

Molecule: Dabrafenib mesylate
- Viability Fold Change [1, 5]: 0.7923
- Viability Fold Change [1, 6]: 0.8383
- Viability Fold Change [1, 7]: 0.912
- Viability Fold Change [1, 8]: 0.7733
- Viability Fold Change [1, 9]: 0.8008
- Viability Fold Change [1, 10]: 0.913
